In patent US20030130272A1, “Anthracene derivatives as anti-cancer agents” (priority 1999, published 2003):
Where a name gives a salt, the structure may show the parent alone.

Columns and labels:
[1] = biological target: T1, topo I (Homo sapiens, UniProt P11387); test: Inhibition of topoisomerase I mediated relaxation of pBR322 DNA; type: biochemical
T1 sequence (P11387 1-765): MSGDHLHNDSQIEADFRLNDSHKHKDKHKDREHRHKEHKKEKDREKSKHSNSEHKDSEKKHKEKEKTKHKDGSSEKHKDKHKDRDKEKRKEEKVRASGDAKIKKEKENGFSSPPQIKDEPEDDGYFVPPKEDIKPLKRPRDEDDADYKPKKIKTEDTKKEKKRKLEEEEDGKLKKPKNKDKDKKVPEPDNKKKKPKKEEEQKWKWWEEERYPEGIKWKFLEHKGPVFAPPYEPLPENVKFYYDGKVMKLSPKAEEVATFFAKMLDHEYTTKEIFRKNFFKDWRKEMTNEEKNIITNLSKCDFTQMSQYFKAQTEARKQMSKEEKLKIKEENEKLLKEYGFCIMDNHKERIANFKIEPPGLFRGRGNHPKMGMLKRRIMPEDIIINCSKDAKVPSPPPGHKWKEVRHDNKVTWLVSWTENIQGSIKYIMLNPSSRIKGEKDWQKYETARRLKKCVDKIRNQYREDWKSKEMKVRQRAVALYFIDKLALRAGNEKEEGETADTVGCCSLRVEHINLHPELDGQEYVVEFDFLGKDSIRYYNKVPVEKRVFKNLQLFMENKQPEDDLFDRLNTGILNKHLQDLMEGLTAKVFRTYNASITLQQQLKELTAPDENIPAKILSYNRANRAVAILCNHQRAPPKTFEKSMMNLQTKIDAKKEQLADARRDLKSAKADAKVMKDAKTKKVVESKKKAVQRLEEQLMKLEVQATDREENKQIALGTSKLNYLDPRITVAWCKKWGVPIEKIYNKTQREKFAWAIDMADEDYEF

[2] = tested on: MAC 15A cells; test: In vitro activity against MAC 15A adenocarcinoma (MTT assay); type: cell-based; conditions: MAC15A colon adenocarcinoma, 96 hours continuous exposure
Protocol: MAC 15A cells were grown in RPMI 1640 medium supplemented with 10% foetal calf serum containing a 1% antibiotic mixture under standard tissue culture conditions and were maintained at 37° C. in a humidified atmosphere of 5% CO2 in air. Cells were harvested from a stock culture in exponential growth phase and plated in 96-well flat-bottomed plates to achieve a final density of 2×10^3 cells per well. After 2 hours incubation medium was replaced with either fresh medium containing 0.5% DMSO (control) or medium containing test compound dissolved in DMSO at a concentrations from 10 mM to 1 nM. Chemosensitivity was assessed using MTT assay by the method of Plumb et al Cancer Research 49 (1989) 4435-4440.
Following 96 hours continuous exposure to drug at 37° C. cells were incubated with fresh drug-free medium immediately prior to addition of MTT solution (5 mg/ml). Medium and MTT were removed after 4 hours and 150 μl of DMSO was added. For each plate the absorbance of the resulting solution was measured at the analytical wavelength 550 nm for formnazan product, using a Labsystem Mutiskan. IC50 values were obtained from growth curves of drug concentration against % survival and are expressed in μm.
In vitro Cytotoxicity of Spacer Limked Anthraquinone Peptide Conjugates on MAC15A Colon Adenocarcinoma

| Compound | IC50 [2] | also measured |
| --- | --- | --- |
| O=C1c2ccccc2C(=O)c2c1cccc2N1CCC[C@H]1C(=O)O [Example 6, (2S)-1-(9,10-dioxoanthryl)prrolidine-2-carboxylic acid] | – | DNA-topoisomerase activity: inhibition of topo I relaxation ([1]; at 100 μM): PARTIAL inhibition at 100 μM |
| N[C@@H](Cc1ccc(Cl)cc1)C(=O)NC1CCC(Nc2cccc3c2C(=O)c2ccccc2C3=O)CC1 (stereo partly drawn) [Example 94, (2S)-2-amino-N-{4-[(9,10-dioxoanthryl)amino]cyclohexyl}-3-(4-chlorophenyl)propanamide trifluoroacetate salt] | 1 µM | – |
| C[C@@H](N)C(=O)NC1CCC(Nc2cccc3c2C(=O)c2ccccc2C3=O)CC1 (stereo partly drawn) [Example 34, (2R)-2-amino-N-{4-[(9,10-dioxoanthryl)amino]cyclohexyl}propanamide trifluoroacetate salt] | 3.9 µM | – |
| CC(C)[C@H](N)C(=O)NC1CCC(Nc2cccc3c2C(=O)c2ccccc2C3=O)CC1 (stereo partly drawn) [Example 36, (2S)-2-amino-N-{4-[(9,10-dioxoanthryl)amino]cyclohexyl}-3-methylbutanamide trifluoroacetate salt] | 4.5 µM | – |
| NCC(=O)NCCCN1CCN(CCCNc2cccc3c2C(=O)c2ccccc2C3=O)CC1.O=C(O)C(F)(F)F.O=C(O)C(F)(F)F.O=C(O)C(F)(F)F [Example 49, 2-amino-N-[3-(4-{3-[(9,10-dioxoanthryl)amino]propyl}piperazinyl)-propyl]acetamide tri-trifluoroacetate salt] | – | DNA-topoisomerase activity: inhibition of topo I relaxation ([1]; at 25 μM): PARTIAL inhibition; DNA-topoisomerase activity: inhibition of topo I relaxation ([1]; at 50 μM): COMPLETE |
| N[C@@H](Cc1ccccc1Cl)C(=O)NC1CCC(Nc2cccc3c2C(=O)c2ccccc2C3=O)CC1 (stereo partly drawn) [Example 44, (2S)-2-amino-N-{4-[(9,10-dioxoanthryl)amino]cyclohexyl}-3-(2-chlorophenyl)propanamide trifluoroacetate salt] | 3 µM | – |
| N[C@H](Cc1ccccc1Cl)C(=O)NC1CCC(Nc2cccc3c2C(=O)c2ccccc2C3=O)CC1 (stereo partly drawn) [Example 46, (2R)-2-amino-N-{4-[(9,10-dioxoanthryl)amino]cyclohexyl}-3-(2-chloro-phenyl)propanamide trifluoroacetate salt] | 4.1 µM | – |
| NCCC(=O)NC1CCCCC1Nc1cccc2c1C(=O)c1ccccc1C2=O (centres unmarked) [Example 68, 3-amino-N-{2-[(9,10-dioxoanthryl)amino]cyclohexyl}propanamide trifluoroacetate salt] | 6.2 µM | – |
| N[C@H](Cc1ccccc1)C(=O)NCCCN1CCN(CCCNc2cccc3c2C(=O)c2ccccc2C3=O)CC1 [Example 61, (2R)-2-amino-N-[3-(4-{3-[(9,10-dioxoanthryl)amino]propyl}-piperazinyl)propyl]-3-phenylpropanamide trifluoroacetate salt] | 3.8 µM | – |
| C[C@H](NC(=O)OC(C)(C)C)C(=O)N1CCN(c2cccc3c2C(=O)c2ccccc2C3=O)CC1 [Example 16, 1-(1-N-tertiarybutoxycarbonyl-L-alanylpiperazinyl)anthracene-9,10-dione] | – | DNA-topoisomerase activity: inhibition of topo I relaxation ([1]; between 25-100 μM): NO inhibition between 25-100 μM |
| CC(C)[C@@H](N)C(=O)NC1CCC(Nc2cccc3c2C(=O)c2ccccc2C3=O)CC1 (stereo partly drawn) [Example 38, (2R)-2-amino-N-{4-[(9,10-dioxoanthryl)amino]cyclohexyl}-3-methylbutanamide trifluoroacetate salt] | 4.2 µM | – |
| C[C@H](N)C(=O)OC[C@@H]1CCCN1c1cccc2c1C(=O)c1ccccc1C2=O [Example 13, [(2S)]-1-(9,10-dioxoanthryl)pyrrolidin-2-yl]methyl (2S)-2-aminopropanoate trifluoroacetate salt] | 22 µM | – |
| N[C@@H](Cc1ccc(O)cc1)C(=O)NCCCN1CCN(CCCNc2cccc3c2C(=O)c2ccccc2C3=O)CC1.O=C(O)C(F)(F)F [Example 63, (2S)-2-amino-N-[3-(4-{3-[(9,10-dioxoanthryl)amino]propyl}-piperazinyl)propyl]-3-(4-hydroxyphenyl)propanamide trifluoroacetate salt] | – | DNA-topoisomerase activity: inhibition of topo I relaxation ([1]; at 25 μM): PARTIAL inhibition; DNA-topoisomerase activity: inhibition of topo I relaxation ([1]; at 50 μM): COMPLETE |
| NCC(=O)NC1CCC(Nc2cccc3c2C(=O)c2ccccc2C3=O)CC1 (centres unmarked) [Example 30, 2-amino-N-{4-[(9,10-dioxoanthryl)amino]cyclohexyl}acetamide trifluoroacetate salt] | 6 µM | – |
| NCC(=O)Nc1ccc(Nc2cccc3c2C(=O)c2ccccc2C3=O)cc1 [Example 70, 2-amino-N-{4-[(9,10-dioxoanthryl)amino]phenyl}acetamide trifluoroacetate salt] | 2.2 µM | – |
| O=C1c2ccccc2C(=O)c2c(NC3CCC(NC(=O)[C@@H]4CCCN4)CC3)cccc21 (stereo partly drawn) [Example 40, ((2S)pyrrolidin-2-yl)-N-{4-[(9,10-dioxoanthryl)amino]cyclohexyl}-carboxamide trifluoroacetate salt] | 4.2 µM | – |
| C[C@H](N)C(=O)OC1CCN(c2cccc3c2C(=O)c2ccccc2C3=O)CC1.O=C(O)C(F)(F)F [Example 11, 1-(9,10-dioxoanthryl)-4-piperidyl-(2S)-2-aminopropanoate trifluoroacetate salt] | 14 µM | DNA-topoisomerase activity: inhibition of topo I relaxation ([1]; between 25-100 μM): NO inhibition between 25-100 μM |
| C[C@H](N)C(=O)N1CCN(c2cccc3c2C(=O)c2cccc(N4CCN(C(=O)[C@H](C)N)CC4)c2C3=O)CC1 [Example 23, 1,5-bis(1-L-alanylpiperazinyl)anthracene-9,10-dione trifluoroacetate salt] | 15 µM | – |
| C[C@@H](N)C(=O)NCCCN1CCN(CCCNc2cccc3c2C(=O)c2ccccc2C3=O)CC1 [Example 53, (2R)-2-amino-N-[3-(4-{3-[(9,10-dioxoanthryl)amino]propyl}-piperazinyl)propyl]propanamide trifluoroacetate salt] | 4.9 µM | – |
| NCCCC[C@H](N)C(=O)N1CCN(c2cccc3c2C(=O)c2ccccc2C3=O)CC1 [Example 79, 1-[4-((2S)-2-6-diaminohexanoyl)piperazinyl]anthracene-9,10-dione bis trifluoroacetate salt] | 28 µM | – |
| ((2S)pyrrolidine-2-yl)-N-[3-(4-{3-[(9,10-dioxoanthryl)amino]propyl}-piperazinyl)propyl]carboxamide trifluoroacetate salt [Example 57] | 4.6 µM | DNA-topoisomerase activity: inhibition of topo I relaxation ([1]; at 25 μM): PARTIAL inhibition; DNA-topoisomerase activity: inhibition of topo I relaxation ([1]; at 50 μM): COMPLETE |
| CC(C)[C@H](N)C(=O)NCCCN1CCN(CCCNc2cccc3c2C(=O)c2ccccc2C3=O)CC1.O=C(O)C(F)(F)F [Example 55, (2S)-2-amino-N-[3-(4-{3-[(9,10-dioxoanthryl)amino]propyl}-piperazinyl)propyl]-3-methylbutanamide trifluoroacetate salt] | – | DNA-topoisomerase activity: inhibition of topo I relaxation ([1]; at 25 μM): PARTIAL inhibition; DNA-topoisomerase activity: inhibition of topo I relaxation ([1]; at 50 μM): COMPLETE |
| C[C@H](N)C(=O)NC1CCC(Nc2cccc3c2C(=O)c2ccccc2C3=O)CC1 (stereo partly drawn) [Example 32, (2S)-2-amino-N-{4-[(9,10-dioxoanthryl)amino]cyclohexyl}propanamide trifluoroacetate salt] | 4.4 µM | – |
| C[C@H](N)C(=O)NC1CCCCC1Nc1cccc2c1C(=O)c1ccccc1C2=O.O=C(O)C(F)(F)F (stereo partly drawn) [Example 66, (2S)-2-amino-N-{2-[(9,10-dioxoanthryl)amino]cyclohexyl}propanamide trifluoroacetate salt] | 6.7 µM | DNA-topoisomerase activity: inhibition of topo I relaxation ([1]; at 10 μM): COMPLETE inhibition at 10 μM; concentrations; DNA-topoisomerase activity: inhibition of topo I relaxation ([1]; concentrations above 10 μM): above this value antagonised inhibitory activity |
